In patent US12478617B2, “Lipidated peptide inhibitors of interleukin-23 receptor” (JANSSEN BIOTECH, INC., priority 2021, dated 2025):
Starred links: 1 amine or outer side, 2 acyl side, 3 side chain; linkers in the order of their positions; H or OH if unused. Positions of bridges follow the written chain, without caps; N, C: chain ends. Non-standard residues stand in square brackets, D forms with d. Residues, ends and D or L forms follow the SMILES beside them. Groups on a side chain read outwards from the residue. *: point of attachment. Decanoyl(10-O(3-COOH-Ph)) = O=C(O)c1cccc(OCCCCCCCCCC(=O)*)c1; Trp(7-Me) = Cc1cccc2c(C[C@H](N)C(=O)O)c[nH]c12; C18 diacid = O=C(O)CCCCCCCCCCCCCCCCC(=O)*; C16 diacid = O=C(O)CCCCCCCCCCCCCCC(=O)*; γGlu = O=C(O)[C@H](CCC(=O)[*:2])N[*:1]; 2Nal = N[C@@H](Cc1ccc2ccccc2c1)C(=O)O; AEF = NCCOc1ccc(C[C@H](N)C(=O)O)cc1; Stearoyl = CCCCCCCCCCCCCCCCCC(=O)*; 3Pal = N[C@@H](Cc1cccnc1)C(=O)O; Pen = CC(C)(S)[C@H](N)C(=O)O; Thp = NC1(C(=O)O)CCOCC1; AEEA = NCCOCCOCC(=O)O; Sar = CNCC(=O)O

Target: T1, IL-23R (Homo sapiens, UniProt Q5VWK5)
T1 construct: HEK293 cells containing IL-23R, IL-12RP31 and a firefly luciferase reporter gene driven by a STAT-inducible promoter (Promega); host or cells: HEK293
T1 sequence (Q5VWK5 24-629): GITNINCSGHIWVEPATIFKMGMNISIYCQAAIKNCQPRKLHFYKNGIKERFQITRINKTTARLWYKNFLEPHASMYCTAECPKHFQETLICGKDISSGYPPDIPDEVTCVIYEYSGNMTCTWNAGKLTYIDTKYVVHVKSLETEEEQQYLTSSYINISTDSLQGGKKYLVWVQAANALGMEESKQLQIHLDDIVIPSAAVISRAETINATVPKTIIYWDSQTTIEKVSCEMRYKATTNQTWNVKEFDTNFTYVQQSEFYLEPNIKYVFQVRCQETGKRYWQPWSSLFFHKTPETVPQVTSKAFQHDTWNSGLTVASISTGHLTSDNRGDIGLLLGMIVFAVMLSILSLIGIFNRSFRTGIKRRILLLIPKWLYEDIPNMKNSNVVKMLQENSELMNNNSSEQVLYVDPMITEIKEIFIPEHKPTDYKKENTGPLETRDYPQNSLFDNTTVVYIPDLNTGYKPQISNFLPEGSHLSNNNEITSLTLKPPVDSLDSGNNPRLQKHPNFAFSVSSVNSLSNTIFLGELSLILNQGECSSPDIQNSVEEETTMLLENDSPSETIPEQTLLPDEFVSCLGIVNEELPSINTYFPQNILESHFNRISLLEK
Test: IL23R Reporter Assay
Type: cell-based
Method in brief: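 Reporter cells read out IL-23-driven STAT3 activation; compounds were serially diluted in DMSO. After 5 h at 37 °C, 5% CO2, cells were brought to 20 °C and luminescence was measured with BioGlo reagent.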

| SMILES | IC50 |
| --- | --- |
| CCCCCCCCCCCCCCCCCC(=O)N[C@@H](CCC(=O)NCCCC[C@H](NC(=O)C1(NC(=O)[C@H](Cc2ccc3ccccc3c2)NC(=O)[C@H](Cc2ccc(OCCN)cc2)NC(=O)[C@H]2NC(=O)[C@H](CCCCNC(C)=O)NC(=O)[C@H](Cc3c[nH]c4c(C)cccc34)NC(=O)[C@H]([C@@H](C)O)NC(=O)[C@H](CC(N)=O)NC(=O)[C@@H](NC(C)=O)C(C)(C)SSC2(C)C)CCOCC1)C(=O)N[C@@H](CC(N)=O)C(=O)N[C@@H](Cc1cccnc1)C(=O)N(C)CC(N)=O)C(=O)O [Example 31, MeCO-Pen*-N-T-7MeW-K(Ac)-Pen*-AEF-2Nal-THP-K(gEC18)-N-3Pya-Sar-CONH2] (Ac-[Pen]NT[Trp(7-Me)]K(Ac)[Pen][AEF][2Nal][Thp]K([γGlu-Stearoyl])N[3Pal][Sar]-NH2; disulfide 1-6) | 0.052 nM |
| CC(=O)NCCCC[C@@H]1NC(=O)[C@H](Cc2c[nH]c3c(C)cccc23)NC(=O)[C@H]([C@@H](C)O)NC(=O)[C@H](CC(N)=O)NC(=O)[C@@H](NC(=O)[C@@H](CCCNC(=N)N)NC(=O)COCCOCCNC(=O)COCCOCCNC(=O)CC[C@H](NC(=O)CCCCCCCCCCCCCCC(=O)O)C(=O)O)C(C)(C)SSC(C)(C)[C@@H](C(=O)N[C@@H](Cc2ccc(OCCN)cc2)C(=O)N[C@@H](Cc2ccc3ccccc3c2)C(=O)NC2(C(=O)N[C@@H](CCCCNC(C)=O)C(=O)N[C@@H](CC(N)=O)C(=O)N[C@@H](Cc3cccnc3)C(=O)N(C)CC(N)=O)CCOCC2)NC1=O [Example 24, HOC16gEPEG2PEG2-r-Pen*-N-T-7MeW-K(Ac)-Pen*-AEF-2Nal-THP-K(Ac)-N-3Pya-Sar-CONH2] ({C16 diacid-γGlu-AEEA-AEEA}-[dR][Pen]NT[Trp(7-Me)]K(Ac)[Pen][AEF][2Nal][Thp]K(Ac)N[3Pal][Sar]-NH2; disulfide 2-7) | 0.017 nM |
| CC(=O)NCCCC[C@@H]1NC(=O)[C@H](Cc2c[nH]c3c(C)cccc23)NC(=O)[C@H]([C@@H](C)O)NC(=O)[C@H](CC(N)=O)NC(=O)[C@@H](NC(=O)[C@@H](CCCNC(=N)N)NC(C)=O)C(C)(C)SSC(C)(C)[C@@H](C(=O)N[C@@H](Cc2ccc(OCCN)cc2)C(=O)N[C@@H](Cc2ccc3ccccc3c2)C(=O)NC2(C(=O)N[C@@H](CCCCNC(=O)COCCOCCNC(=O)COCCOCCNC(=O)CC[C@H](NC(=O)CCCCCCCCCCCCCCCCC(=O)O)C(=O)O)C(=O)N[C@@H](CC(N)=O)C(=O)N[C@@H](Cc3cccnc3)C(=O)N(C)CC(N)=O)CCOCC2)NC1=O [Example 27, MeCO-r-Pen*-N-T-7MeW-K(Ac)-Pen*-AEF-2Nal-THP-K(PEG2PEG2gEC18OH)-N-3Pya-Sar-CONH2] (Ac-[dR][Pen]NT[Trp(7-Me)]K(Ac)[Pen][AEF][2Nal][Thp]K([AEEA-AEEA-γGlu-C18 diacid])N[3Pal][Sar]-NH2; disulfide 2-7) | 0.059 nM |
| CC(=O)NCCCC[C@@H]1NC(=O)[C@H](Cc2c[nH]c3c(C)cccc23)NC(=O)[C@H]([C@@H](C)O)NC(=O)[C@H](CC(N)=O)NC(=O)[C@@H](NC(C)=O)C(C)(C)SSC(C)(C)[C@@H](C(=O)N[C@@H](Cc2ccc(OCCN)cc2)C(=O)N[C@@H](Cc2ccc3ccccc3c2)C(=O)NC2(C(=O)N[C@@H](CCCCNC(=O)COCCOCCNC(=O)COCCOCCNC(=O)CC[C@H](NC(=O)CCCCCCCCCOc3cccc(C(=O)O)c3)C(=O)O)C(=O)N[C@@H](CC(N)=O)C(=O)N[C@@H](Cc3cccnc3)C(=O)N(C)CC(N)=O)CCOCC2)NC1=O [Example 97, MeCO-Pen*-N-T-7MeW-K(Ac)-Pen*-AEF-2Nal-THP-K(PEG2PEG2gEmXOH)-N-3Pya-Sar-CONH2] (Ac-[Pen]NT[Trp(7-Me)]K(Ac)[Pen][AEF][2Nal][Thp]K([AEEA-AEEA-γGlu-Decanoyl(10-O(3-COOH-Ph))])N[3Pal][Sar]-NH2; disulfide 1-6) | 0.0082 nM |
